Reference: patent publication US20230048888A1, “USE OF TRIAZOLOTRIAZINE DERIVATIVE IN TREATMENT OF DISEASES” (ZHEJIANG VIMGREEN PHARMACEUTICALS, LTD., priority 2019, published 2023)
Where two headings read alike, the source gives them in different places.

Columns and labels:
[1] = Stability of acetate crystal at 60° C. closed and 40° C./75% RH open, HPLC purity and XRPD; format: physicochemical; details: for XPRD (crystal form after storage): 7 days; for Purity over 7 days (area %): initial purity 98.79 area %
Procedure: A certain amount of acetate crystal was held at 60° C. in a closed condition and at 40° C./75% RH in an open condition for a maximum of 7 days. Samples were taken on days 0, 3, and 7 and diluted with a diluent to about 0.3 mg/mL for HPLC purity testing. The solid samples were tested by XRPD to determine the crystal form.

[2] = Pharmacokinetics of acetate of Compound 22 in SD rats with single and repeated administration; format: in vivo; details: for clearance / Vd / AUC(0-t) / half-life / bioavailability / Cmax / C0 / Tmax: rat, plasma; for Tmax: read-out: Tmax (median)
Procedure: The formulation for Group 5 was prepared before administration on Day 1, and then, divided into daily doses and stored at 5±3° C. After taking out the formulations on the day of administration, the formulations should be let stand at room temperature for at least 30 minutes before administration.
After blood collection, the blood collection tube containing the anticoagulant was turned upside down several times to mix well, and placed on wet ice before centrifugation. Within 60 minutes after blood collection, the samples were centrifuged at 2000 g for 10 minutes at 2-8° C. to separate red blood cells, thereby obtaining plasma samples. The plasma samples were transferred to cryovials and stored at −75±15° C. until analysis.
Blood samples were collected from SD rats at room temperature before administration and within 24 hours after administration. All collected samples were placed on wet ice before centrifugation and stored at −75±15° C. until analysis.
The mass spectrometer was Applied Biosystems/AB Sciex Triple Quad 4500.
Pharmacokinetic data was calculated using the linear logarithmic trapezoidal method, with a weight of 1/(Y*Y). Samples with the sample concentration below the lower limit of quantification were excluded from the calculation of pharmacokinetic parameters. […] The mean time to peak (Tmax) was represented as a median.

For `CC(=O)O.Nc1nc(NCCc2ccc(NC3COC3)cc2)nc2nc(-c3ccco3)nn12` [Acetate of Compound 22, 2-(furan-2-yl)-N5-(4-(oxetane-3-ylamino)phenethyl)-[1,2,4]triazolo[1,5-a][1,3,5]triazine-5,7-diamine acetate], the “XPRD (crystal form after storage)” value ([1]; 40° C./75% RH open) was “Transformed”, the “Purity over 7 days (area %)” value ([1]; 40° C./75% RH open) was 98.99 area % and the “Degradation under test conditions” value ([1]; 60° C. and 40° C./75% RH, up to 7 days) was “no significant degradation”. The “XPRD (crystal form after storage)” value ([1]; 60° C. closed) was “Unchanged”, the “Purity over 7 days (area %)” value ([1]; 60° C. closed) was 99.01 area % and the “exposure ratio between Day 7 and Day 1” value ([2]; 63 mg/kg daily for 7 consecutive days) was “less than 2”. It also gave an F ([2]; Group 2 PO 21 mg/kg single, Female) of 70.8 ± 6.75%, an F ([2]; Group 2 PO 21 mg/kg single, Male) of 82.2 ± 20.6% and an F ([2]; Group 2 PO 21 mg/kg single, Overall) of 76.5 ± 15.1%. For the same compound, the F ([2]; Group 3 PO 63 mg/kg single, Female) was 74.1 ± 21.9%, the F ([2]; Group 3 PO 63 mg/kg single, Male) was 56.9 ± 1.98% and the F ([2]; Group 3 PO 63 mg/kg single, Overall) was 65.5 ± 16.8%. The F ([2]; Group 4 PO 189 mg/kg single, Female) was 44.9 ± 10.1%, the F ([2]; Group 4 PO 189 mg/kg single, Male) was 50.9 ± 5.28% and the F ([2]; Group 4 PO 189 mg/kg single, Overall) was 47.9 ± 7.91%. It also gave an F ([2]; Group 5 PO 63 mg/kg repeated, Day 1, Female) of 77.0 ± 12.5%, an F ([2]; Group 5 PO 63 mg/kg repeated, Day 1, Male) of 51.9 ± 20.5% and an F ([2]; Group 5 PO 63 mg/kg repeated, Day 1, Overall) of 64.5 ± 20.5%. For the same compound, the clearance ([2]; Sprague-Dawley (SD), intravenous injection 2.0 mg/kg, read-out: clearance rate (CL)) was 6.02 mL/min/kg, the Vd ([2]; Sprague-Dawley (SD), intravenous injection 2.0 mg/kg, read-out: steady-state apparent volume of distribution (Vss)) was 0.457 L/kg and the AUC(0-t) ([2]; Sprague-Dawley (SD), iv, 2 mg/kg, intravenous injection 2.0 mg/kg, read-out: drug exposure AUC0-t) was 5.36 µg·h/mL. It also gave a half-life ([2]; Sprague-Dawley (SD), iv, 2 mg/kg, intravenous injection 2.0 mg/kg, read-out: half-life T1/2 (converted)) of 3.39 h, a bioavailability ([2]; Sprague-Dawley (SD), oral 21 mg/kg) of 76.5% and a bioavailability ([2]; Sprague-Dawley (SD), oral 63 mg/kg) of 65.5%. It also gave a bioavailability ([2]; Sprague-Dawley (SD), oral 189 mg/kg) of 47.9%, an AUC(0-t) ([2]; Sprague-Dawley (SD), oral, 63 mg/kg, 63 mg/kg daily for 7 consecutive days, Day 1, read-out: AUC0-t) of 111 µg·h/mL and an AUC(0-t) ([2]; Sprague-Dawley (SD), oral, 63 mg/kg, 63 mg/kg daily for 7 consecutive days, Day 7, read-out: AUC0-t) of 127 µg·h/mL. It also gave an AUC(0-t) ([2]; Sprague-Dawley (SD), po, 21 mg/kg, oral 21 mg/kg, read-out: drug exposure (AUC0-t)) of 42.8 µg·h/mL, a Cmax ([2]; Sprague-Dawley (SD), po, 21 mg/kg, oral 21 mg/kg, read-out: maximum plasma concentration (Cmax)) of 18400 ng/mL and an AUC(0-t) ([2]; Sprague-Dawley (SD), po, 63 mg/kg, oral 63 mg/kg, read-out: drug exposure (AUC0-t)) of 112 µg·h/mL. It also gave a Cmax ([2]; Sprague-Dawley (SD), po, 63 mg/kg, oral 63 mg/kg, read-out: maximum plasma concentration (Cmax)) of 27400 ng/mL, an AUC(0-t) ([2]; Sprague-Dawley (SD), po, 189 mg/kg, oral 189 mg/kg, read-out: drug exposure (AUC0-t)) of 241 µg·h/mL and a Cmax ([2]; Sprague-Dawley (SD), po, 189 mg/kg, oral 189 mg/kg, read-out: maximum plasma concentration (Cmax)) of 51800 ng/mL. The C0 ([2]; Sprague-Dawley, Group 1 IV 2.0 mg/kg single, Female) was 8140 ± 820 ng/mL, the clearance ([2]; Sprague-Dawley, Group 1 IV 2.0 mg/kg single, Female, read-out: CL) was 5.66 ± 0.166 mL/min/kg and the Vd ([2]; Sprague-Dawley, Group 1 IV 2.0 mg/kg single, Female, read-out: Vss) was 0.465 ± 0.122 L/kg. The C0 ([2]; Sprague-Dawley, Group 1 IV 2.0 mg/kg single, Male) was 7060 ± 699 ng/mL, the clearance ([2]; Sprague-Dawley, Group 1 IV 2.0 mg/kg single, Male, read-out: CL) was 6.56 mL/min/kg and the Vd ([2]; Sprague-Dawley, Group 1 IV 2.0 mg/kg single, Male, read-out: Vss) was 0.445 L/kg. It also gave a C0 ([2]; both sexes, Sprague-Dawley, Group 1 IV 2.0 mg/kg single, Overall) of 7600 ± 905 ng/mL, a clearance ([2]; both sexes, Sprague-Dawley, Group 1 IV 2.0 mg/kg single, Overall, read-out: CL) of 6.02 ± 0.668 mL/min/kg and a Vd ([2]; both sexes, Sprague-Dawley, Group 1 IV 2.0 mg/kg single, Overall, read-out: Vss) of 0.457 ± 0.088 L/kg. The AUC(0-t) ([2]; both sexes, Sprague-Dawley, iv, 2 mg/kg, Group 1 IV 2.0 mg/kg single, Overall, read-out: AUC0-t) was 5.36 ± 0.664 µg·h/mL, the half-life ([2]; both sexes, Sprague-Dawley, iv, 2 mg/kg, Group 1 IV 2.0 mg/kg single, Overall, read-out: T1/2 (converted)) was 3.39 ± 2.9 h and the AUC(0-t) ([2]; both sexes, Sprague-Dawley, po, 21 mg/kg, Group 2 PO 21 mg/kg single, Overall, read-out: AUC0-t) was 42.8 ± 7.21 µg·h/mL. For the same compound, the Cmax ([2]; both sexes, Sprague-Dawley, po, 21 mg/kg, Group 2 PO 21 mg/kg single, Overall, read-out: Cmax) was 18400 ± 4040 ng/mL, the half-life ([2]; both sexes, Sprague-Dawley, po, 21 mg/kg, Group 2 PO 21 mg/kg single, Overall, read-out: T1/2 (converted)) was 3.47 ± 0.596 h and the Tmax ([2]; both sexes, Sprague-Dawley, po, 21 mg/kg, Group 2 PO 21 mg/kg single, Overall) was 0.5 h. The AUC(0-t) ([2]; both sexes, Sprague-Dawley, po, 63 mg/kg, Group 3 PO 63 mg/kg single, Overall, read-out: AUC0-t) was 112 ± 37.2 µg·h/mL, the Cmax ([2]; both sexes, Sprague-Dawley, po, 63 mg/kg, Group 3 PO 63 mg/kg single, Overall, read-out: Cmax) was 27400 ± 7200 ng/mL and the half-life ([2]; both sexes, Sprague-Dawley, po, 63 mg/kg, Group 3 PO 63 mg/kg single, Overall, read-out: T1/2 (converted)) was 3.01 ± 0.63 h. The Tmax ([2]; both sexes, Sprague-Dawley, po, 63 mg/kg, Group 3 PO 63 mg/kg single, Overall) was 1 h, the AUC(0-t) ([2]; both sexes, Sprague-Dawley, po, 63 mg/kg, Group 5 PO 63 mg/kg repeated, Day 1, Overall, read-out: AUC0-t) was 111 ± 42.1 µg·h/mL and the Cmax ([2]; both sexes, Sprague-Dawley, po, 63 mg/kg, Group 5 PO 63 mg/kg repeated, Day 1, Overall, read-out: Cmax) was 28800 ± 11400 ng/mL.
